Experimental data: patent publication US20060263351A1, “Methods and compositions for protection against thrombolysis associated reperfusion injury” (The General Hospital Corporation, priority 2002, published 2006)
Entries after “also recorded” stand apart in the source; their conditions may differ.

What was measured:
MMP-9 [1] = settings: rats pre-treated intravenously with U0126 vs saline, 2 hr focal ischemia
Source text: In this investigation, rats were pre-treated with either saline or U0126 intravenously, then subjected to 2 hr focal ischemia. U0126 inhibits MEK, which is the upstream kinase that activates ERK.

MMP-9 [2] = test: Gelatin zymography of brain after embolic focal ischemia, MMP-9; format: in vivo, rat; settings: tPA 10 mg/kg, 6 hrs post-ischemia; 12 hrs after embolic focal ischemia; vs saline
Source text: (§1) The use of BB-94 provided pharmacologic evidence that MMPs were involved in tPA-induced hemorrhage. The role of tPA in further increasing MMP levels was investigated (Sumii, T, E. H. Lo, Stroke 33:831-836, 2002; Aoki, T., et al., Stroke 33:2711-2717, 2002). At 12 hrs after embolic focal ischemia in rats, gelatin zymograms show an upregulation in MMP-9, as expected (FIG. 2A). […] This is an important point since MMP-9 is already produced in ischemic brain. The relevance of tPA-induced MMP-9 is dependent on how much more is released.

MMP-9 [3] = test: Gelatin zymography of brain after mechanical (filament) transient focal ischemia, MMP-9; format: in vivo, rat; settings: 2 hr transient filament occlusion, reperfused 3, 6, or 24 hrs; tPA 10 mg/kg at onset of reperfusion; vs saline
Procedure: Similar findings were obtained in mechanical (filament) models of focal ischemia. Rats were subjected to transient occlusions for 2 hrs, then reperfused for 3, 6, or 24 hrs. Saline controls were compared with rats treated with 10 mg/kg of tPA at the onset of reperfusion.

MMP-2 [4] = test: Gelatin zymography of brain after embolic focal ischemia, MMP-2; format: in vivo, rat; settings: tPA 10 mg/kg, 6 hrs post-ischemia; 12 hrs after embolic focal ischemia; vs saline
Source text: as §1

MMP-9 [5] = test: Zymography of conditioned media, neuron/astrocyte co-cultures, MMP-9; format: cell-based, rat; settings: 24 hr exposure to tPA
Procedure: (§2) Different doses of tPA were added to primary co-cultures of neurons/astrocytes from rat brain, or microvessel endothelial cells from human brain. Cytotoxicity assays of LDH release confirmed that these doses were not toxic, consistent with our previous published experience using tPA in vitro (Wang X, et al., Neurosci Lett 274:79-82, 1999). In addition, these doses are within range of plasma concentrations in patients treated with intravenous tPA (NINDS rt-PA Stroke Study Group, New Engl J Med 333:1581-1587, 1995).

[6] = system: microvessel endothelial cells from human brain; test: Cytotoxicity assay of LDH release, brain endothelial cells; format: cell-based; settings: different doses of tPA
Procedure: as §2

MMP-9 [7] = test: tPA-induced MMP-9 production in wild-type murine embryonic fibroblasts (MEF-1); format: cell-based, mouse; settings: wild-type MEF-1 cells
ERK = test: Western blot of phospho-ERK after tPA exposure in vitro; format: cell-based; settings: 40 μg/ml tPA; rat cultures
Source text: (§3) The presence of MMP upregulation following activation of various signaling pathways after tPA binds to LRP, was investigated. In this investigation, MAP kinase was examined.

MMP-2 [8] = test: Zymography of conditioned media, brain microvessel endothelial cells, MMP-2; format: cell-based; settings: human brain endothelial cells
Procedure: as §2

[9] = system: primary co-cultures of neurons/astrocytes from rat brain; test: Cytotoxicity assay of LDH release, neuron/astrocyte co-cultures; format: cell-based; settings: different doses of tPA
Procedure: as §2

p38 MAP kinase = test: Western blot of phospho-p38 after tPA exposure in vitro; format: cell-based; settings: 40 μg/ml tPA; rat cultures
Source text: as §3

MMP-9 [10] = test: Zymography of conditioned media, brain microvessel endothelial cells, MMP-9; format: cell-based, human
Procedure: as §2

MMP-9 [11] = test: tPA-induced MMP-9 production in LRP knockout murine embryonic fibroblasts (PEA-13); format: cell-based, mouse; settings: LRP knockout PEA-13 cells

Compound | ischemic upregulation of MMP-9 (MMP-9 [1]) | MMP-9 levels in brain (gelatin zymograms) (MMP-9 [2]) | upregulation of MMP-9 in brain (gelatin zymograms) (MMP-9 [3]) | MMP-2 levels in brain (gelatin zymograms) (MMP-2 [4]) | secretion of MMP-9 (MMP-9 [5]) | cytotoxicity (LDH release) [6] | MMP-9 production (MMP-9 [7]) | activation of ERK pathway (phospho-ERK) (ERK) | dose- and time-dependence of tPA-induced MMP-2 release (MMP-2 [8]) | cytotoxicity (LDH release) [9] | activation of p38 MAP kinase pathway (phospho-p38) (p38 MAP kinase) | secretion of MMP-9 (MMP-9 [10]; cerebral microvessel endothelial cells, 24 hr exposure to tPA) | dose- and time-dependence of tPA-induced MMP-9 release (MMP-9 [10]; human brain endothelial cells) | MMP-9 response (MMP-9 [11])
N#CC(=C(/N)Sc1ccccc1N)/C(C#N)=C(\N)Sc1ccccc1N [U0126] | can attenuate ischemic upregulation of MMP-9; also recorded: attenuated MMP-9 levels | – | – | – | – | – | – | – | – | – | – | – | – | –
tPA: tissue plasminogen activator (alteplase), thrombolytic agent | – | more than doubled the production of MMP-9; also recorded: doubling of MMP-9 | clearly amplified the upregulation of MMP-9; also recorded: MMP-9 is amplified | slightly increased but the difference did not reach statistical significance | clearly induced secretion of MMP-9; also recorded: increased MMP-9 secretion | not toxic | induced MMP-9 production | activation of ERK; also recorded: rapidly activated | clear dose- and time-dependence | not toxic | activation; also recorded: rapidly activated | clearly induced secretion of MMP-9; also recorded: increased MMP-9 secretion | clear dose- and time-dependence | no tPA-induced MMP-9 response; also recorded: no significant response
